Measured values: US6403034B1, “Method of reducing the concentration of recalcitrant organic contamination in a soil matrix” (priority 1995, dated 2002)
Like-named read-outs stand apart in the source and are kept apart here.

Legend:
[1] = type: physicochemical; conditions: for soil concentration reduced by: continuous ozonation for 56 days
[2] = Relative recalcitrancy classification of organic contaminants (FIG. 1); type: physicochemical
[3] = Ozonation of contaminated soil slurry in 5-L reaction flask (Examples 1, 2 and 7); type: physicochemical
[4] = Laboratory ozonation of contaminants, incubation versus oxidation phase (FIGS. 2, 5, 6, 8-12); type: physicochemical; conditions: for incubation time: lab conditions
[5] = aqueous solubility; cited from earlier work
[6] = by solubility, volatility and non-reactivity standards

For `CCOP(=S)(OCC)Oc1ccc([S+](C)[O-])cc1` (stereo not shown) [Phensulfothion], the “soil concentration reduced by” value [1] was 100%.

In the case of `CCc1ccccc1` [ethylbenzene], the relative recalcitrancy [2] is reported as “non-recalcitrant”.

With `ClC1=C(Cl)C2(Cl)C3C4C=CC(C4)C3C1(Cl)C2(Cl)Cl` (stereo not shown) [Aldrin] the relative recalcitrancy [2] was “strongly recalcitrant”.

With `CCCCCCC` [heptane] the relative recalcitrancy [2, 6] was “non-recalcitrant”.

In the case of `CCCCC(CC)COC(=O)c1ccccc1C(=O)OCC(CC)CCCC` (stereo not shown) [bis(2-ethylhexyl)phthalate], the “concentration reduced by” value ([3]; Example 2, in 72 hours of ozonation, start 597 mg/Kg) is reported as 98.2%, the incubation time ([4]; FIGS. 6, 8, 9) is reported as “less than 30 hours” and the relative recalcitrancy [2, 6] is reported as “recalcitrant”.

In the case of `ClC1=C(Cl)C2(Cl)C3C(Cl)C(Cl)CC3C1(Cl)C2(Cl)Cl` (stereo not shown) [Chlordane], the relative recalcitrancy [2] is reported as “strongly recalcitrant”.

For `CCOC(=O)CC(SP(=S)(OC)OC)C(=O)OCC` (stereo not shown) [malathion], the relative recalcitrancy [2] was “recalcitrant”.

In the case of `c1ccc2c(c1)cc1ccc3cccc4ccc2c1c34` [benzo(a)pyrene], the incubation time ([4]; FIGS. 6, 8, 9) is reported as “more than 5 hours”.

For `c1ccc2ccccc2c1` [napthalene], the relative recalcitrancy [2] was “recalcitrant”.

In the case of `c1ccc2cc3ccccc3cc2c1` [anthracene], the relative recalcitrancy [2, 6] is reported as “recalcitrant”.

With `Clc1ccc(C(c2ccc(Cl)cc2)C(Cl)(Cl)Cl)cc1` [DDT] the relative recalcitrancy [2] was “strongly recalcitrant”.

In the case of `c1ccccc1` [Benzene], the relative recalcitrancy [2, 6] is reported as “non-recalcitrant”.

In the case of `O=S1OCC2C(CO1)C1(Cl)C(Cl)=C(Cl)C2(Cl)C1(Cl)Cl` (stereo not shown) [Endosulfan II], the incubation phase ([1]; 31 mg/kg, FIG. 17) is reported as “about 16 days” and the “soil concentration reduced by” value [1] is reported as 100%.

In the case of `c1ccc2c(c1)ccc1c3ccccc3ccc21` [chrysene], the relative recalcitrancy [2] is reported as “recalcitrant”.

With `Clc1c(Cl)c(Cl)c(Cl)c(Cl)c1Cl` [HCB] the “incubation phase (ozonation time)” value [4] was roughly 8 h.

With `CCCCCCCCOC(=O)c1ccccc1C(=O)OCCCCCCCC` [Di-n-octyl phthalate] the “concentration reduced by” value ([3]; Example 2, in 48 hours of ozonation, start 37 mg/Kg) was 97%.

For `Oc1c(Cl)c(Cl)c(Cl)c(Cl)c1Cl` [PCP, Pentachlorophenol], the “concentration reduced by” value ([3]; Example 1, in 31 hours, start 28 mg/Kg) was 97.5% and the incubation time ([4]; FIG. 10) was “about 45 minutes”.

In the case of `CCOP(=S)(OCC)Oc1ccc([N+](=O)[O-])cc1` [Ethyl Parathion], the “soil concentration reduced by” value [1] is reported as 100%.

For `c1ccc(-c2ccccc2)cc1` [biphenyl], the solubility [5] is listed as 5,200 μg/L and the relative recalcitrancy [2] is listed as “marginally recalcitrant”.

With `c1cc2c3c(cccc3c1)CC2` [acenapthene] the relative recalcitrancy [2] was “recalcitrant”.
